Data as given in US8771680B2, “Topical co-enzyme Q10 formulations and methods of use” (University of Miami, priority 2004, dated 2014).

Legend:
squamous carcinoma cells = assay: Proliferation of squamous carcinoma cells in in vitro culture; type: cell-based; conditions: 48 hour in vitro culture
Experimental: (§1) Retrieve Q10 stock from −20° C. storage and weigh out approximately 4.4 mg. Transfer Q10 into a 25 mL centrifuge tube. Add 1 mL 2-propanol to centrifuge tube. Vortex and dip in hot water bath (55° C.) to promote dissolution. Add 9 mL of media to centrifuge tube. Vortex and dip in hot water bath (55° C.) if necessary to create a homogenous solution. […] Make serial dilutions to treatment concentrations.
(§2) After subculture (per subculturing cells protocol described above), pipet the desired volume suspension of cells to count (0.25-1 mL) into Coulter Counter Vial (Beckman, Inc.) using an automatic pipette. Insure that the Beckman Coulter® Z1 Cell and Particle Counter is clean by using Coulter CLENZ (Beckman, Inc., Fullerton, Calif.) to flush. Flush apparatus once with Isoton II Diluent. Add Isoton II Diluent to vial containing cells for a total volume of 10 mL. Use output mode of apparatus to count cells twice to ensure accuracy. Average counts together and calculate total cell number per volume.
(§3) Acclimate reagents to 37° C. in water bath. Make stock solution of Q10 as per protocol described above for creating a homogenous solution of Q10 in media. Perform serial dilutions to desired concentrations. Place 2 mL media into respective wells. Subculture flasks as per protocol described above for subculturing cells. […]

[1] = system: human neonatal keratinocytes; assay: Proliferation of neonatal keratinocytes in in vitro culture; type: cell-based; conditions: 48 hour in vitro culture
Experimental: as §1, §2, §3

[2] = system: human breast adenocarcinoma cell line (BT-20); assay: Proliferation of breast adenocarcinoma cell line BT-20 in in vitro culture; type: cell-based
Experimental: as §1, §2, §3

[3] = system: human breast adenocarcinoma cell line (SK-BR-3); assay: Proliferation of breast adenocarcinoma cell line SK-BR-3 in in vitro culture; type: cell-based
Experimental: as §1, §2, §3

[4] = system: human prostatic adenocarcinoma cell line (PC-3); assay: Apoptosis analysis by JC-1 stain (mitochondrial polarization, flow cytometry); type: cell-based; conditions: PC-3 cells, 0.2 mM Q10, 24 h
Experimental: FIG. 28 is a graph showing the effect of CoQ10 on mitochondrial polarization (an indicator of apoptosis) of a human prostatic adenocarcinoma cell line (PC-3) in a 24 hour in vitro culture. PC-3 cell cultures were treated with Q10 at 0.05, 0.1 and 0.2 mM concentrations for 24 h and then treated with JC-1, at 10 microgram/ml., for 30 min. Uptake and levels of green fluorescence was measured in a flow cytometer, FL1 (green fluor.).
Apoptosis was measured using a mitochondrial membrane dye JC-1, 5,5′,6,6′-tetrachloro-1,1′,3,3′-tetraethyl-benzimidazolylcarbocyanine chloride (Molecular Probe, Eugene, Oreg.). Treatments consisting of DMEM-F12 media supplemented with 1×PSA, 5% FBS and 0, 50, 100, and 200 μM concentrations of coenzyme Q10 were prepared in 60×15 mm tissue culture dishes (Costar-Cambride, Mass.). PC-3 cells were seeded at 500,000 cells per dish and incubated for 24 hours. The cells were trypsinized using 2 mL trypsin-EDTA and subjected to centrifugation at 2,500 rpm for 8 minutes. They were resuspended in 1 mL of Ham's F12 medium lacking serum and phenol red (Cascade Biologics, Inc-Portland, Oreg.) and promptly placed on ice. A 1 mg/ml stock solution of JC-1 was prepared using sterile DMSO and 10 μL was added to each cell suspension while gently vortexing. […] The samples were analyzed by flow cytometry for changes in uptake of fluorescent dye. […]

[5] = system: human melanoma cell line (SKMEL28); assay: Proliferation of melanoma cell line in in vitro culture (cell counting); type: cell-based
Experimental: as §1, §2, §3

normal cells (nFIB) = assay: Apoptosis assay (Annexin-VPE) in normal cells; type: cell-based, human; conditions: culture of normal cells
Experimental: (§4) Cell lines used in the assay were SK-Mel28 and nFIB. Cells (SK-Mel28 and nFIB) were seeded (5×10^4 cells/well) into wells containing either solely medium or medium with treatment and placed in an incubator at 37° C., 5% CO2, and under humidified conditions for 48 hours. Each condition was performed in duplicate and was subjected to the following protocol:
(§5) Apoptosis Analysis as Per Protocol of BD Pharmingen Annexin-VPE Protocol
(§6) Reagents include Annexin V-PE (BD Pharmingen, San Diego, Calif.), 7-AAD (BD Pharmingen, San Diego, Calif.), binding buffer (10×: 0.1 M Hepes/NaOH, 1.4 M NaCl, 25 mM CaCl2) [diluted to 1× (9 mL PBS and 1 mL binding buffer) for use in experiment] (BD Pharmingen, San Diego, Calif.), Trypsin-EDTA (Gibco, Grand Island, N.Y.), and desired Media.
(§7) Add 0.5 mL trypsin to each well, remove trypsin after approximately 10 seconds, and add 0.5 mL trypsin to each well. Place wells in an incubator, observe level of detachment under microscope after 4 minutes, and gently tap sides and bottom to aid in detachment. When cells detach, neutralize with 0.5 mL serum-supplemented medium. Transfer cell solution to centrifuge tubes, centrifuge cells at 2000 RPM for 5 minutes, aspirate supernatant, resuspend in 6 mL PBS, and split 6 mL into three centrifuge tubes (2 mL each). […]

[6] = system: human neonatal fibroblasts; assay: Proliferation of neonatal fibroblasts in in vitro culture; type: cell-based; conditions: 48 hour in vitro culture
Experimental: as §1, §2, §3

[7] = system: human breast adenocarcinoma cell line (MDA-MB-468); assay: Proliferation of breast adenocarcinoma cell line MDA-MB-468 in in vitro culture; type: cell-based
Experimental: as §1, §2, §3

SK-MEL28 tumors = assay: Effect of topical formulation of Coenzyme Q10 on SK-MEL28 tumors in mice; type: in vivo
Experimental: Subculture flasks as per the cell subculturing protocol described above. After aspirating supernatant, combine pellets from each flask diluted slightly with PBS with a 5 mL pipette. Dilute final cell suspension to contain approximately ten million cells per 100 μL. Transfer cell suspension to micro-centrifuge tubes (2 mL). Place in ice immediately and leave in ice until injected. Anesthetize mice via an intraperitoneal injection with 0.3 cc Aventin. Inoculate each animal subcutaneously with 0.1 cc cell suspension per site. Transfer any remaining cells into a 15 mL centrifuge tube. Dilute to 10 mL with medium. Centrifuge at 2500 RPM for 8 minutes. Aspirate supernatant. Add 10 mL media to centrifuge tube. Create a homogenous cell suspension by pipetting and vortexing. Seed cells in a T75 flask to ensure experimental cell viability.
Melanoma tumors were induced in mice by SK-MEL28 injection into the subcutaneous layer. The animal study consisted of both a control and treatment group each containing four mice. The mice were inoculated with two tumors and the graph of FIG. 14 represents the resulting mean mass for the tumors in each mouse. A topical formulation of Coenzyme Q10 (A 1.0% and 1.5% formulation was tested) was applied to the tumors in the treatment group daily for a period of 30 days. After which, the tumors were excised and the mass was determined. […]

[8] = system: breast adenocarcinoma cell line (MCF-7); assay: Proliferation of breast adenocarcinoma cell line MCF-7 in in vitro culture; type: cell-based
Experimental: as §1, §2, §3

[9] = system: skin cancer cells (SK-Mel28); assay: Apoptosis assay (Annexin-VPE) in skin cancer cells; type: cell-based, human; conditions: culture of skin cancer cells
Experimental: as §4, §5, §6, §7

[10] = system: human hepatocellular carcinoma cell line (Hep 3B); assay: Proliferation of hepatocellular carcinoma cell line Hep 3B in in vitro culture; type: cell-based
Experimental: as §1, §2, §3

[11] = system: human osteosarcoma cell line (143B); assay: Proliferation of osteosarcoma cell line 143B in in vitro culture; type: cell-based
Experimental: as §1, §2, §3

[12] = system: human prostatic adenocarcinoma cell line (PC-3); assay: Proliferation of prostatic adenocarcinoma cell line PC-3 in in vitro culture; type: cell-based
Experimental: as §1, §2, §3

[13] = of cancer patients having progressive disease before treatment; cited from earlier work

SMILES: COC1=C(OC)C(=O)C(C/C=C(\C)CC/C=C(\C)CC/C=C(\C)CC/C=C(\C)CC/C=C(\C)CC/C=C(\C)CC/C=C(\C)CC/C=C(\C)CC/C=C(\C)CCC=C(C)C)=C(C)C1=O [CoQ10, Coenzyme Q10]
- proliferation (squamous carcinoma cells): reduces the proliferation
- proliferation [1]: increases the proliferation
- proliferation ([2]; BT-20, 48 hour in vitro culture): reduces the proliferation
- proliferation ([2]; BT-20, 72 hour in vitro culture): reduces the proliferation
- proliferation ([3]; SK-BR-3, 48 hour in vitro culture): reduces the proliferation
- proliferation ([3]; SK-BR-3, 72 hour in vitro culture): reduces the proliferation
- green fluorescence of JC-1 (mitochondrial polarization, an indicator of apoptosis) [4]: significant increase
- proliferation ([5]; SKMEL28, 36 hour in vitro culture): reduces the proliferation
- proliferation ([5]; SKMEL28, 48 hour in vitro culture): reduces the proliferation
- rate of apoptosis (normal cells (nFIB)): but not normal cells
- proliferation [6]: increases the proliferation
- proliferation ([7]; MDA-MB-468, 48 hour in vitro culture): reduces the proliferation
- proliferation ([7]; MDA-MB-468, 72 hour in vitro culture): reduces the proliferation
- Average tumor mass decreased as compared to the control (SK-MEL28 tumors; 1.0% CoQ10 topically for 30 days): 52.3%
- Average tumor mass decreased as compared to the control (SK-MEL28 tumors; 1.5% CoQ10 topically for 30 days): 54.0%
- proliferation ([8]; MCF-7, 48 hour in vitro culture): reduces the proliferation
- proliferation ([8]; MCF-7, 72 hour in vitro culture): reduces the proliferation
- rate of apoptosis [9]: increase the rate of apoptosis
- proliferation ([10]; 48 hour in vitro culture): reduces the proliferation
- proliferation ([10]; 72 hour in vitro culture): reduces the proliferation
- proliferation ([11]; 48 hour in vitro culture): reduces the proliferation
- proliferation ([11]; 72 hour in vitro culture): reduces the proliferation
- proliferation ([12]; PC-3, 48 hour in vitro culture): reduces the proliferation
- proliferation ([12]; PC-3, 72 hour in vitro culture): reduces the proliferation

SMILES: NC(=O)c1nnn(Cc2cc(Cl)c(C(=O)c3ccc(Cl)cc3)c(Cl)c2)c1N [CAI, carboxyamidotriazole]
- disease stabilization [13]: 49%
